Where a name gives a salt, the structure may show the parent alone. Read-outs that look alike come from different tables or passages of the source.
Legend:
Format in all cases: cell-based
MYB mRNA = assay: RT-qPCR splicing assay, MYB canonical (CJ) and alternative (AJ) junction mRNA; settings: Homo sapiens; for IC50: read-out: MYB CJ IC50; for AC50: read-out: MYB AJ AC50
In short: (§1)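 Splice-junction mRNAs (CJ, AJ) measured by TaqMan one-step RT-qPCR on cell lysates, using PPIA as reference for adherent A673 and GAPDH or GUSB for K562. Cells exposed for 24 h to 11 threefold concentrations up to 10 uM final, with DMSO at or below 0.25%.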

SMN2 mRNA = assay: RT-qPCR splicing assay, gene panel, SMN2 canonical junction (CJ) mRNA; settings: Homo sapiens, read-out: SMN2 CJ IC50
In short: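 A673 (DMEM/10% FBS) or K562 (IMDM/10% FBS) cells were treated 24 h at 37 °C with an 11-point 3-fold dilution series, top final 10 uM, DMSO ≤0.25%. Lysates underwent one-step RT-qPCR for the canonical-junction isoform with GAPDH, GUSB or PPIA as housekeeper. ΔΔCt versus DMSO was converted to RQ (2^−ΔΔCt), then to percent response.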

HTT mRNA = assay: RT-qPCR splicing assay, HTT canonical (CJ) and alternative (AJ) junction mRNA; settings: Homo sapiens; for IC50: read-out: HTT CJ IC50; for AC50: read-out: HTT AJ AC50
In short: as §1

K562 cells = assay: Cell Titer Glo 2.0 cell viability assay; settings: Homo sapiens, 500 cells/well, 72 hours
In short: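 K562 cells (500/well) in IMDM with 10% FBS were exposed to serially diluted compounds at 0.1% DMSO final. After 72 h at 37° C, 5% CO2, viability was read by CellTiter-Glo 2.0 luminescence, with medium-only blanks.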

[1] = decrease in CJ mRNA levels, larger panel of genes, Table 3
[2] = decrease in canonical junction mRNA, A673 or K562 cells, 24 hours treatment, Table 2
[3] = increase in alternative junction mRNA, A673 or K562 cells, 24 hours treatment, Table 2

| SMILES | IC50 (MYB mRNA; [1]) | IC50 (MYB mRNA; [2]) | IC50 (SMN2 mRNA; [1]) | IC50 (HTT mRNA; [1]) | IC50 (HTT mRNA; [2]) | GI50 (K562 cells) | AC50 (MYB mRNA; [3]) | AC50 (HTT mRNA; [3]) | AC50 (MYB mRNA; 24 h) | IC50 (MYB mRNA; 24 h) | IC50 (MYB mRNA) | IC50 (SMN2 mRNA) | AC50 (HTT mRNA; 24 h) | IC50 (HTT mRNA; 24 h) | IC50 (HTT mRNA) |
| --- | --- | --- | --- | --- | --- | --- | --- | --- | --- | --- | --- | --- | --- | --- | --- |
| Cc1c(O)c(-c2ccc3nn(C4CCNCC4)nc3n2)cc2cn(C)nc12 [Compound 113, 2,7-dimethyl-5-[2-(4-piperidyl)triazolo[4,5-b]pyridin-5-yl]indazol-6-ol] | > 10 µM | > 10 µM | 1 to 10 µM | 1 to 10 µM | 1 to 10 µM | 1 to 10 µM | > 10 µM | 1 to 10 µM | – | – | – | – | – | – | – |
| Cc1cc(-n2cc3cc(C4CCNCC4)cc(F)c3n2)cc2cn(C)nc12 [Compound 115, 2-(2,7-dimethylindazol-5-yl)-7-fluoro-5-(4-piperidyl)indazole] | > 10 µM | > 10 µM | 0.1 to 1 µM | 1 to 10 µM | 1 to 10 µM | 1 to 10 µM | 1 to 10 µM | 1 to 10 µM | – | – | – | – | – | – | – |
| Cc1cc(-n2cc3cc(N4CCNCC4)cc(F)c3n2)cc2cn(C)nc12 [Compound 117, 2-(2,7-dimethylindazol-5-yl)-7-fluoro-5-piperazin-1-yl-indazole] | > 10 µM | > 10 µM | 0.1 to 1 µM | > 10 µM | > 10 µM | 1 to 10 µM | 1 to 10 µM | 1 to 10 µM | – | – | – | – | – | – | – |
| Cc1nc2c(C)cc(-n3cc4cc(N5CCNCC5)cc(F)c4n3)cc2o1 [Compound 119, 6-(7-fluoro-5-piperazin-1-yl-indazol-2-yl)-2,4-dimethyl-1,3-benzoxazole] | > 10 µM | > 10 µM | 1 to 10 µM | > 10 µM | > 10 µM | > 10 µM | > 10 µM | > 10 µM | – | – | – | – | – | – | – |
| Cc1cn2nc(-n3cc4cc(C5CCNCC5)cc(F)c4n3)cc(C)c2n1 [Compound 120, 6-[7-fluoro-5-(4-piperidyl)indazol-2-yl]-2,8-dimethyl-imidazo[1,2-b]pyridazine] | > 10 µM | > 10 µM | 0.1 to 1 µM | 1 to 10 µM | 1 to 10 µM | 1 to 10 µM | 1 to 10 µM | > 10 µM | – | – | – | – | – | – | – |
| Cc1cc(-n2cc3cc(N4CCNCC4)ccc3n2)cc2cn(C)nc12 [Compound 121, 2,7-dimethyl-5-(5-piperazin-1-ylindazol-2-yl)indazole] | > 10 µM | > 10 µM | 1 to 10 µM | > 10 µM | > 10 µM | 1 to 10 µM | > 10 µM | > 10 µM | – | – | – | – | – | – | – |
| Cc1cn2nc(-c3cc(F)c4nn(C5CCNCC5)cc4c3)cc(C)c2n1 [Compound 122, 6-(7-fluoro-2-(piperidin-4-yl)-2H-indazol-5-yl)-2,8-dimethylimidazo [1,2-b]pyridazine hydrochloride salt] | – | – | – | – | – | < 0.1 µM | – | – | < 0.1 µM | < 0.1 µM | < 0.1 µM | < 0.1 µM | < 0.1 µM | < 0.1 µM | < 0.1 µM |
| Cc1nc2c(C)c(O)c(-c3cc(F)c4nn(C5CCNCC5)cc4c3)cc2o1 [Compound 123, 6-[7-fluoro-2-(4-piperidyl)indazol-5-yl]-2,4-dimethyl-1,3-benzoxazol-5-ol] | 1 to 10 µM | 1 to 10 µM | 0.1 to 1 µM | 0.1 to 1 µM | 0.1 to 1 µM | 1 to 10 µM | 1 to 10 µM | 0.1 to 1 µM | – | – | – | – | – | – | – |
| Cc1c(O)c(-c2cc(F)c3nn(C4CCNCC4)cc3c2)cc2cn(C)nc12 [Compound 126, 5-[7-fluoro-2-(4-piperidyl)indazol-5-yl]-2,7-dimethyl-indazol-6-ol] | > 10 µM | > 10 µM | 1 to 10 µM | 1 to 10 µM | 1 to 10 µM | > 10 µM | > 10 µM | > 10 µM | – | – | – | – | – | – | – |
| Cc1cn2cc(-c3cc(F)c4nn(C5CCNCC5)cc4c3)nc(C)c2n1 [Compound 132, 6-[7-fluoro-2-(4-piperidyl)indazol-5-yl]-2,8-dimethyl-imidazo[1,2-a]pyrazine] | 1 to 10 µM | 1 to 10 µM | 0.1 to 1 µM | 0.1 to 1 µM | 0.1 to 1 µM | 1 to 10 µM | 1 to 10 µM | 0.1 to 1 µM | – | – | – | – | – | – | – |
| Cc1nc2ccc(-c3cc(F)c4nn(C5CCNCC5)cc4c3)cc2s1 [Compound 134, 6-(7-fluoro-2-(piperidin-4-yl)-2H-indazol-5-yl)-2-methylbenzo[d]thiazole] | 1 to 10 µM | 1 to 10 µM | 0.1 to 1 µM | 1 to 10 µM | 1 to 10 µM | 1 to 10 µM | > 10 µM | > 10 µM | – | – | – | – | – | – | – |
| Cc1nc2ccc(-c3cc(F)c4nn(C5CCNCC5)cc4c3)cc2o1 [Compound 135, 6-[7-fluoro-2-(4-piperidyl)indazol-5-yl]-2-methyl-1,3-benzoxazole] | 0.1 to 1 µM | 0.1 to 1 µM | < 0.1 µM | 0.1 to 1 µM | 0.1 to 1 µM | 0.1 to 1 µM | 0.1 to 1 µM | 0.1 to 1 µM | – | – | – | – | – | – | – |

More lines, main results first:

| IC50 (MYB mRNA; [1]) | IC50 (MYB mRNA; [2]) | IC50 (SMN2 mRNA; [1]) | IC50 (HTT mRNA; [1]) | IC50 (HTT mRNA; [2]) | GI50 (K562 cells) | SMILES | AC50 (MYB mRNA; [3]) | AC50 (HTT mRNA; [3]) | AC50 (MYB mRNA; 24 h) | IC50 (MYB mRNA; 24 h) | IC50 (MYB mRNA) | IC50 (SMN2 mRNA) | AC50 (HTT mRNA; 24 h) | IC50 (HTT mRNA; 24 h) | IC50 (HTT mRNA) |
| --- | --- | --- | --- | --- | --- | --- | --- | --- | --- | --- | --- | --- | --- | --- | --- |
| 0.1 to 1 µM | 0.1 to 1 µM | < 0.1 µM | < 0.1 µM | < 0.1 µM | 0.1 to 1 µM | Cc1cn2nc(-c3cc(F)c4nn(C5CCNCC5)cc4c3)cc2c(C)n1 [Compound 124, 2-[7-fluoro-2-(4-piperidyl)indazol-5-yl]-4,6-dimethyl-pyrazolo[1,5-a]pyrazine] | 0.1 to 1 µM | < 0.1 µM | – | – | – | – | – | – | – |
| 0.1 to 1 µM | 0.1 to 1 µM | < 0.1 µM | 0.1 to 1 µM | 0.1 to 1 µM | 0.1 to 1 µM | Cc1cn2cc(-c3cc(F)c4nn(C5CCNCC5)cc4c3)cc(C)c2n1 [Compound 125, 5-(2,8-dimethylimidazo[1,2-a]pyridin-6-yl)-7-fluoro-2-(4-piperidyl)indazole] | 0.1 to 1 µM | 0.1 to 1 µM | – | – | – | – | – | – | – |
| 0.1 to 1 µM | 0.1 to 1 µM | < 0.1 µM | < 0.1 µM | < 0.1 µM | 0.1 to 1 µM | Cc1cn2cc(-c3cc(F)c4nn(C5CCNCC5)cc4c3)cc(Cl)c2n1 [Compound 127, 5-(8-chloro-2-methylimidazo[1,2-a]pyridin-6-yl)-7-fluoro-2-(piperidin-4-yl)-2H-indazole hydrochloride salt] | 0.1 to 1 µM | 0.1 to 1 µM | – | – | – | – | – | – | – |
| 0.1 to 1 µM | 0.1 to 1 µM | < 0.1 µM | < 0.1 µM | < 0.1 µM | 0.1 to 1 µM | Cc1cn2cc(-c3cc(F)c4nn(C5CCNCC5)cc4c3)cc(F)c2n1 [Compound 129, 7-fluoro-5-(8-fluoro-2-methylimidazo[1,2-a]pyridin-6-yl)-2-(piperidin-4-yl)-2H-indazole] | 0.1 to 1 µM | < 0.1 µM | – | – | – | – | – | – | – |
| 0.1 to 1 µM | 0.1 to 1 µM | < 0.1 µM | < 0.1 µM | < 0.1 µM | 0.1 to 1 µM | Cn1cc2cc(-c3cc(F)c4nn(C5CCNCC5)cc4c3)cc(C#N)c2n1 [Compound 130, 5-[7-fluoro-2-(4-piperidyl)indazol-5-yl]-2-methyl-indazole-7-carbonitrile] | 0.1 to 1 µM | < 0.1 µM | – | – | – | – | – | – | – |
| 0.1 to 1 µM | 0.1 to 1 µM | < 0.1 µM | < 0.1 µM | < 0.1 µM | 0.1 to 1 µM | Cc1cc(-c2cc(F)c3nn(C4CCNCC4)cc3c2)cc2cn(C)nc12 [Compound 133, 5-(2,7-dimethylindazol-5-yl)-7-fluoro-2-(4-piperidyl)indazole] | 0.1 to 1 µM | < 0.1 µM | – | – | – | – | – | – | – |

Source: US20250082633A1, “COMPOUNDS AND METHODS FOR MODULATING SPLICING” (REMIX THERAPEUTICS INC., priority 2021, published 2025)
